Measurements reported in PMC6838151 (Scientific Reports, 2019).
Values after ≈ are worked out from the molar mass of the structure shown. Like-named read-outs stand apart in the source and are kept apart here.

Assays:
[1] = system: S. cerevisiae erg6Δ; assay: MIC50 growth inhibition, S. cerevisiae erg6Δ deletion mutant, 48 h; format: cell-based, Saccharomyces cerevisiae
Source text: (§1) For the preliminary studies of the biological activity of the studied compound we chose S. cerevisiae, which is generally considered a non-pathogenic organism, but currently recognized as a potentially important agent causing opportunistic infections against immunocompromised patients. In order to assess whether all the Ke derivatives share the mechanism of action with the parent compound, or if they might present different or additional modes of action, the inhibitory concentration MIC50 (Table 2) was determined on the basis of the dose-response curves (Fig. S11 in ESI) in a 48 h assay against S. cerevisiae wt strain BY4741 and the deletion mutant erg6Δ, which lacks the gene coding for the S-adenosylmethionine: 24-methyltransferase[52], accumulating cholesta-5,7,24-trienol and zymosterol instead of ergosterol. There are several studies reporting that the ERG6 gene deletion may increase the resistance of S. cerevisiae cells to azole compounds[54]–[56]. […] The value determined for the wt strain is in very good agreement with previous studies carried out under similar condition (48 h, 30 °C) (e.g.[57]).
(§2) The following strains of S. cerevisiae were used in this study: BY4741 (wild type towards erg6Δ, ACC Y00000; MATa; his3Δ1; leu2Δ0; met15Δ0; ura3Δ0), erg6Δ (ACC Y00568; BY4741 isogenic with YML008c::kanMX4), W303 (wild type towards AD1-8; MATα; leu2-3,112 trp1-1 can1-100 ura3-1 ade2-1 his3-11,15 AD1-8 (W303 isogenic with pdr1-3, ura3, his1, yor1∆::hisG, snq2∆::hisG, pdr5∆::hisG, pdr10∆::hisG, pdr11∆:: hisG, ycf1∆::hisG, pdr3∆::hisG, pdr15∆::hisG). BY4741 and erg6Δ were acquired from EUROSCARF, Frankfurt, Germany; W303 and AD1-8 were kind gifts from Prof. A. Goffeau, Chaire Internationale Blaise Pascal, Lab. Genet. Mol., École Normale Supérieure, Paris, and Prof. M. Ghislain, Université Catholique de Louvain, Faculté des sciences Agronomiques, Louvain-la-Neuve, Belgium. Visible turbid overnight cultures of S. cerevisiae strains were prepared and diluted to A600 ≈ 0.1 in fresh Yeast Extract – Peptone - Dextrose (YPD) medium. The cultures were transferred to 96 microtiter well plates containing aliquots of serially diluted antifungal drugs (Ke and its derivatives: KeP, KeOP, KeSP, KeSeP), prepared from DMS stock solutions and drug-free controls. The yeast cultures were statically incubated at 30 °C for 48 hours with compounds[88]. The dose-response curves were analysed with GraphPad Prism 5 software (San Diego, USA) or a microplate reader ASYS UVM (Biogenet). All values presented are the mean of at least three independent experiments.

[2] = system: S. cerevisiae WT (W303); assay: MIC50 growth inhibition, S. cerevisiae wt W303, 48 h; format: cell-based; conditions: Saccharomyces cerevisiae
Source text: as §2, with “The cultures were transferred to 96 microtiter well plates containing aliquots of serially diluted antifungal drugs (Ke and its derivatives: KeP, KeOP, KeSP, KeSeP), prepared from DMS stock solutions and drug-free controls.” left out

[3] = system: S. cerevisiae WT (BY4741); assay: MIC50 growth inhibition, S. cerevisiae wt BY4741, 48 h; format: cell-based, Saccharomyces cerevisiae; conditions: YPD, 30 °C
Source text: as §1, §2

[4] = system: C. albicans Gu4; assay: microbe, parasite or virus in culture; format: cell-based; conditions: Candida albicans, GU4, 48 h
Source text: (§3) The C. albicans CAF2-1 (Genotype/Description: ura3Δ::imm434/URA3[89]) and DSY1050 (Genotype/Description: cdr1Δ::hisG/cdr1Δ::hisG/cdr2Δ::hisG/cdr2Δ::hisG/mdr1Δ::hisG-URA3-hisG/mdr1Δ::hisG[90]) strains used in this study were generous gift from D. Sanglard (Lausanne, Switzerland)[91],[92] whereas C. albicans B3 and Gu4 (Genotype/Description: clinical isolates fluconazole sensitive)[93]), B4 (Genotype/Description: Clinical isolate fluconazole resistant due to the overexpression of MDR1[93]) and Gu5 (Genotype/Description: Clinical isolate fluconazole resistant due to the overexpression of CDR1 and CDR2[93]) were a generous gift from prof. S. Milewski (Gdańsk, Poland)[94] and prof. J. Morschhäuser (Wurzburg, Germany)[93]. All strains were grown at 37 °C on Sabouraud medium (Biomerieux).
(§4) The antifungal activity was determined on the 96-well polystyrene microtiter plates (Sarstedt) according to Clinical and Laboratory Standards Institute M27-A3[95]. […] The compounds were dissolved in DMSO (10 mM) and then serially diluted in RPMI-1640 (ThermoFisher) medium to obtain the final concentration range. Inocula of all strains were prepared as suspensions with turbidity of 0.5 McFarland standard in sterile 0.85% saline and diluted in RPMI-1640. After inoculation, each well contained appr. 5 × 10^2 CFU/mL. The plates were cultivated for 48 h at 37 °C. Optical density was measured at A490nm using a microplate reader ASYS UVM 340 (Biogenet).

[5] = system: C. albicans B3; assay: microbe, parasite or virus in culture; format: cell-based; conditions: Candida albicans
Source text: as §3, §4

[6] = system: C. albicans B4; assay: microbe, parasite or virus in culture; format: cell-based, Candida albicans; conditions: for times higher resistance of B4 than B3: B4 vs B3; for MIC50: Candida albicans, B4, 48 h
Source text: as §3, §4

[7] = system: C. albicans DSY1050; assay: microbe, parasite or virus in culture; format: cell-based, Candida albicans; conditions: for MIC50: Candida albicans, DSY1050, 48 h; for times more susceptible than parental strain (CAF2-1): DSY1050 vs CAF2-1
Source text: as §3, §4

[8] = system: C. albicans Gu5; assay: microbe, parasite or virus in culture; format: cell-based, Candida albicans; conditions: for times more resistant than Gu4 strain: Gu5 vs Gu4
Source text: as §3, §4

[9] = system: C. albicans CAF2-1; assay: microbe, parasite or virus in culture; format: cell-based, Candida albicans; conditions: for times more active than Flc: C. albicans CAF2-1, MIC50 ratio; for MIC50: Candida albicans, CAF21, 48 h
Source text: as §3, §4

[10] = Saccharomyces cerevisiae, read-out: MIC50
[11] = C. albicans B3, RPMI-1640, 37 °C, 48 h, read-out: MIC50
[12] = S. cerevisiae WT (W303), YPD, 30 °C, read-out: MIC50
[13] = S. cerevisiae erg6Δ, YPD, 30 °C
[14] = C. albicans Gu5, RPMI-1640, 37 °C, 48 h

SMILES | MIC50 ([1]; Saccharomyces cerevisiae) [µM] | MIC50 [2] [µM] | MIC50 [3, 10] [µM] | MIC50 [4] [µM] | MIC50 [5, 11] [µM] | times higher resistance of B4 than B3 [6] | MIC50 [6] [µM] | MIC50 [7] [µM] | times more susceptible than parental strain (CAF2-1) [7] | MIC50 ([8]; Candida albicans, GU5, 48 h) [µM] | times more resistant than Gu4 strain [8] | times more active than Flc [9] | MIC50 [9] [µM] | MIC50 [2, 12] [µM] | MIC50 [1, 13] | MIC50 ([5]; B3, 48 h) [µM] | MIC50 [3] | MIC50 [8, 14]
O=P(CN1CCN(c2ccc(OC[C@H]3CO[C@](Cn4ccnc4)(c4ccc(Cl)cc4Cl)O3)cc2)CC1)(c1ccccc1)c1ccccc1 (racemic) [KeOP, Ph2P(O)CH2-Ke] | 0.00482 (≈ 0.00339 µg/mL) | 3.13 (≈ 2.2 µg/mL) | 0.00416 (≈ 0.00293 µg/mL) | 12.5 (≈ 8.8 µg/mL) | 1.56 (≈ 1.1 µg/mL) | two | 3.13 (≈ 2.2 µg/mL) | 0.2 (≈ 0.141 µg/mL) | four | 25 (≈ 17.6 µg/mL) | two | eight | 0.78 (≈ 0.549 µg/mL) | – | – | – | – | –
Clc1ccc([C@@]2(Cn3ccnc3)OC[C@H](COc3ccc(N4CCN(CP(c5ccccc5)c5ccccc5)CC4)cc3)O2)c(Cl)c1 (racemic) [KeP, Ph2PCH2-Ke] | 0.654 (≈ 0.45 µg/mL) | – | 9.02 (≈ 6.2 µg/mL) | 3.13 (≈ 2.15 µg/mL) | 0.39 (≈ 0.268 µg/mL) | eight | 3.13 (≈ 2.15 µg/mL) | 0.78 (≈ 0.536 µg/mL) | four | 50 (≈ 34.4 µg/mL) | sixteen | two | 3.13 (≈ 2.15 µg/mL) | 12.5 (≈ 8.6 µg/mL) | – | – | – | –
CC(=O)N1CCN(c2ccc(OCC3COC(Cn4ccnc4)(c4ccc(Cl)cc4Cl)O3)cc2)CC1 (stereo not shown) [Ke, ketoconazole, reference compound] | > 200 | – | 0.865 (≈ 0.46 µg/mL) | 25 (≈ 13.3 µg/mL) | – | – | 0.39 (≈ 0.207 µg/mL) | 0.02 (≈ 0.0106 µg/mL) | – | 50 (≈ 26.6 µg/mL) | – | – | 0.05 (≈ 0.0266 µg/mL) | 6.25 (≈ 3.32 µg/mL) | no activity | 0.05 (≈ 0.0266 µg/mL) | – | –
S=P(CN1CCN(c2ccc(OC[C@H]3CO[C@](Cn4ccnc4)(c4ccc(Cl)cc4Cl)O3)cc2)CC1)(c1ccccc1)c1ccccc1 [KeSP, Ph2P(S)CH2-Ke] | > 200 | > 200 | > 200 | 50 (≈ 36 µg/mL) | 1.56 (≈ 1.12 µg/mL) | two | 3.13 (≈ 2.25 µg/mL) | 0.39 (≈ 0.281 µg/mL) | eight | > 200 | – | two | 3.13 (≈ 2.25 µg/mL) | – | inactive | – | inactive | no inhibitory effect
Clc1ccc([C@@]2(Cn3ccnc3)OC[C@H](COc3ccc(N4CCN(CP(=[Se])(c5ccccc5)c5ccccc5)CC4)cc3)O2)c(Cl)c1 [KeSeP, Ph2P(Se)CH2-Ke] | 0.578 (≈ 0.443 µg/mL) | – | 1.24 (≈ 0.954 µg/mL) | 12.5 (≈ 9.58 µg/mL) | 3.13 (≈ 2.4 µg/mL) | two | 6.25 (≈ 4.79 µg/mL) | 0.78 (≈ 0.598 µg/mL) | four | > 200 | – | two | 3.13 (≈ 2.4 µg/mL) | 50 (≈ 38.3 µg/mL) | – | – | – | no inhibitory effect
